These are literature values, as cited in patent US20070009923A1, “Use of bayesian networks for modeling cell signaling systems” (Massachusetts Institute of Technology, priority 2005, published 2007).

For this data set, the system named is PKC isozymes.

A word on the IC50: it is the point on the concentration scale where inhibition reaches its midpoint. With `Cn1c2ccccc2c2c3c(c4c5ccccc5n(CCC#N)c4c21)CNC3=O` [G06976], the IC50 was less than 8 nM.
